Assays:
[1] = molecular target: Tumor necrosis factor (Homo sapiens, UniProt P01375); test: Inhibitory activity against tumor necrosis factor alpha (TNF-alpha) production in LPS-stimulated human PBMCs; type: functional
[2] = molecular target: 72 kDa type IV collagenase (Homo sapiens, UniProt P08253); test: Inhibitory potency against Matrix metalloprotease-2 (MMP-2)
[3] = molecular target: T1, Interstitial collagenase (Homo sapiens, UniProt P03956); test: Inhibitory potency against Matrix metalloprotease-1 (MMP-1)
T1 sequence (P03956 whole entry): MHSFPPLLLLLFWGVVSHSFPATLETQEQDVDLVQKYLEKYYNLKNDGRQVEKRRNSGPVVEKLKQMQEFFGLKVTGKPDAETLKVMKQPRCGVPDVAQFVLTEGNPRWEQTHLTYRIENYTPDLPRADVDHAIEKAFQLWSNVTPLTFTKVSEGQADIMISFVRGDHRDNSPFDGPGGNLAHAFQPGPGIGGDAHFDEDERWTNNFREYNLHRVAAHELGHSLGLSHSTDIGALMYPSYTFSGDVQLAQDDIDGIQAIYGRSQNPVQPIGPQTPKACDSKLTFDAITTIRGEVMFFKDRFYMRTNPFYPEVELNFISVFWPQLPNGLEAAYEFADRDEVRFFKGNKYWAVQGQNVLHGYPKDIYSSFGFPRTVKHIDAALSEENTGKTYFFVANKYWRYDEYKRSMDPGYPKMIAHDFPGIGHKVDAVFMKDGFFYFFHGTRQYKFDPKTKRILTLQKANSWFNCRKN

[4] = molecular target: Disintegrin and metalloproteinase domain-containing protein 17 (Homo sapiens, UniProt P78536); test: Inhibitory potency against Tumor necrosis factor alpha converting enzyme (TACE)
Disintegrin and metalloproteinase domain-containing protein 17, sequence (P78536 whole entry, the tested form may be a part): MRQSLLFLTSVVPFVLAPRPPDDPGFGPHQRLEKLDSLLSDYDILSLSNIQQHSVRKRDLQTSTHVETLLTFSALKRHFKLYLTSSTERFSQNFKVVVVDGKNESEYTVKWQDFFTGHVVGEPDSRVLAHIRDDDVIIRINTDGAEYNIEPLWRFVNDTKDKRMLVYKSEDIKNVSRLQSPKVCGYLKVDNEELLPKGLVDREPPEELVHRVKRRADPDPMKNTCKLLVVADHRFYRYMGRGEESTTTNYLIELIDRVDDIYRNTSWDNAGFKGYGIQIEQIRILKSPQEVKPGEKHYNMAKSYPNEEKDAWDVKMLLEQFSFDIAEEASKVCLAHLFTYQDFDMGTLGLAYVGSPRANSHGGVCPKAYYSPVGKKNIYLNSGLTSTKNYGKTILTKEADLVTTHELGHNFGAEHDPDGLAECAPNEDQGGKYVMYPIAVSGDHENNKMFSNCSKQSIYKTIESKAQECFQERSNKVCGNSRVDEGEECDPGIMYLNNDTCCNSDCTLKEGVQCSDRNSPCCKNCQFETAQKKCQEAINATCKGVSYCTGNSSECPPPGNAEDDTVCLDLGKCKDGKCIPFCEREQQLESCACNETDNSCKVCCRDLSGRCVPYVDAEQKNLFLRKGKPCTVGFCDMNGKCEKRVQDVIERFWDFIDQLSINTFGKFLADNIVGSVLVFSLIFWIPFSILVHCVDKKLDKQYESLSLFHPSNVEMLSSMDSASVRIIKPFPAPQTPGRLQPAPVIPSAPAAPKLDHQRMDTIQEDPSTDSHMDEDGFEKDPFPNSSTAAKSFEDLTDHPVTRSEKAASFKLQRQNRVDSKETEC

[5] = molecular target: Stromelysin-1 (Homo sapiens, UniProt P08254); test: Inhibitory potency against Matrix metalloprotease-3 (MMP-3)
Stromelysin-1, sequence (P08254 whole entry): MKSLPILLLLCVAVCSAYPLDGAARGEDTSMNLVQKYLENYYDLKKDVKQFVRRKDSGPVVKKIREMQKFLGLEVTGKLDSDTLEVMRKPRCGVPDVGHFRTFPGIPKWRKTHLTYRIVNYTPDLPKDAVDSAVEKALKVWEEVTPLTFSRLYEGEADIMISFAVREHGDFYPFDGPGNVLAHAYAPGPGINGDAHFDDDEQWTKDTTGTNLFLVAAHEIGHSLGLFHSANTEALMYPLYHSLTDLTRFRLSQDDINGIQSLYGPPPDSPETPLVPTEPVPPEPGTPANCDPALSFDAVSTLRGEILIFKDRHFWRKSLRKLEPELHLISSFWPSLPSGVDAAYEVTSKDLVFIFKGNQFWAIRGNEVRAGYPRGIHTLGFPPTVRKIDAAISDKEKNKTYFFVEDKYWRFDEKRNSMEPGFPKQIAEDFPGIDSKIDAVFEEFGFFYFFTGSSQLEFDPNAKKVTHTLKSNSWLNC

72 kDa type IV collagenase, sequence (P08253 whole entry): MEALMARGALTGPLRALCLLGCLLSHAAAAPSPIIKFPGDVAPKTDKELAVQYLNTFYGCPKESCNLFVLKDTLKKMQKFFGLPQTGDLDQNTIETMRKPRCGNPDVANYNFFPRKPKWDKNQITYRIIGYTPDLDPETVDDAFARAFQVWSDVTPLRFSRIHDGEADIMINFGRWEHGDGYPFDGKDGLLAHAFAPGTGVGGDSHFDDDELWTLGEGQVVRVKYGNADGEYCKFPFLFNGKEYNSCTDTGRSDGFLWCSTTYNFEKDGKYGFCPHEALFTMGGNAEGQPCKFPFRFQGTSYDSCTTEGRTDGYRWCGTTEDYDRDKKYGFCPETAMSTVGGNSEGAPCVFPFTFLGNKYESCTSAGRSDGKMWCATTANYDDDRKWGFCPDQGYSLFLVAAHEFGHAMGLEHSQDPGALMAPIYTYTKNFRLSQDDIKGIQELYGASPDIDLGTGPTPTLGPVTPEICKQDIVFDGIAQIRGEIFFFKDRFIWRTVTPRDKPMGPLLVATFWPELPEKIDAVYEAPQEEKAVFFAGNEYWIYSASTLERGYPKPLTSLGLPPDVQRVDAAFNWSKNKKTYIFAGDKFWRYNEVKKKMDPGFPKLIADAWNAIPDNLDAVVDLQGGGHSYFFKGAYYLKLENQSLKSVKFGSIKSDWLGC
Tumor necrosis factor, sequence (P01375 whole entry): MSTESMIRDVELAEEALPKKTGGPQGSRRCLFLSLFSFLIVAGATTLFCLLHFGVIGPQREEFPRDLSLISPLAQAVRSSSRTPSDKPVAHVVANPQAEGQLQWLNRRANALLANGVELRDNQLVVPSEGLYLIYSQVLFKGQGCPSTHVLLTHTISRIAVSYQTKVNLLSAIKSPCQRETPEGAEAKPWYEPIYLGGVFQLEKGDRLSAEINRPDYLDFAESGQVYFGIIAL

Compound	IC50 [1] [nM]	Ki [2] [nM]	Ki [3] [nM]	Ki [4] [nM]	Ki [5] [nM]
CNC(=O)[C@@H](NC(=O)[C@H](CC(C)C)[C@H](O)C(=O)NO)C(C)(C)C	1000				
CNC(=O)[C@@H](NC(=O)[C@H](CC(C)C)[C@H](CO)C(=O)NO)C(C)(C)C	1610	0.3	0.6	12.9	9.8
CNC(=O)[C@@H](NC(=O)[C@H](c1ccc(OC)cc1)[C@H](CO)C(=O)NO)C(C)(C)C	48	0.5	1.1	0.6	0.9
CNC(=O)[C@@H](NC(=O)[C@H](c1ccc(C)cc1)[C@H](CO)C(=O)NO)C(C)(C)C	269	0.3	2	3.8	15.2
CNC(=O)[C@@H](NC(=O)[C@H](c1ccccc1)[C@H](CO)C(=O)NO)C(C)(C)C	928	4.8	3.5	4.9	13.2
